Measurements published in publication PMC11992225, “Antibacterial compounds against non-growing and intracellular bacteria” (npj Antimicrobials and Resistance, 2025).
Like-named read-outs stand apart in the source and are kept apart here.

Key:
[1] = test system: non-growing S. aureus DSM2569; experiment: Dose-dependent killing analysis (CFU spot-plating) of stationary-phase S. aureus;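 for average Δlog10(CFU/ml) (killing): drug concentration in µM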; format: cell-based, Staphylococcus aureus; details: for log10(CFU/ml) after treatment, replicate 1 / log10(CFU/ml) after treatment, replicate 2 / log10(CFU/ml) after treatment, replicate 3 / average Δlog10(CFU/ml) (killing): S. aureus; for average Δlog10(CFU/ml) (killing): vs 9,097 before treatment
Outline: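 Stationary-phase S. aureus DSM2569 was grown and treated for 24 h in 1:4 CA-MHB at pH 7.4. Treated samples were serially diluted 10-fold in PBS and spot-plated on LB agar, which was incubated overnight at 37 °C. Survivors were counted as CFU over three biological replicates.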

[2] = test system: non-growing S. aureus DSM2569; experiment: Dilution-regrowth assay (OD600, start-growth-time) on stationary-phase S. aureus; format: cell-based, Staphylococcus aureus
Outline: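 Stationary-phase S. aureus cultures were grown and exposed to compound for 24 h in 1:4 CA-MHB (pH 7.4) at 37 °C in 96-well plates with 200 μl volume. After dilution into drug-free medium, regrowth was tracked in a plate reader at 37 °C with continuous shaking, reading OD600 every 20 min; EC50 came from five-parameter logistic fitting.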

non-growing UPEC CFT073 = experiment: Dose-dependent killing analysis (CFU spot-plating) of stationary-phase UPEC; format: cell-based, Escherichia coli;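 for average Δlog10(CFU/ml) (killing): drug concentration in µM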
Outline: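 Non-growing (stationary-phase) UPEC CFT073 treated with compounds in 96-well format at 200 μl, then 10-fold serially diluted in PBS and 10 μl spots plated on LB agar. Plates incubated overnight at 37 °C; colonies counted at lowest resolvable dilution to give CFU. Three biological replicates.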

[3] = test system: non-growing P. aeruginosa DSM1117; experiment: Dose-dependent killing analysis (CFU spot-plating) of stationary-phase P. aeruginosa; format: cell-based, Pseudomonas aeruginosa; details: for killing, average Δlog10(CFU/ml): P. aeruginosa
Outline: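 Stationary-phase P. aeruginosa DSM1117 treated for 24 h in 1:4 CA-MHB, pH 7.4, across compound doses. Survivors counted after 10-fold PBS dilution, spot-plating on LB agar and overnight growth at 37 °C; three biological replicates.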

[4] = E. coli in 1:4 CA-MHB (pH 7.4), drug conc. 0.25
[5] = E. coli in 1:4 CA-MHB (pH 7.4), drug conc. 0.5
[6] = E. coli in 1:4 CA-MHB (pH 7.4), drug conc. 1
[7] = E. coli in 1:4 CA-MHB (pH 7.4), drug conc. 2.5
[8] = E. coli in 1:4 CA-MHB (pH 7.4), drug conc. 5
[9] = E. coli in 1:4 CA-MHB (pH 7.4), drug conc. 10
[10] = E. coli in LPM (pH 5.5), drug conc. 0.25
[11] = E. coli in LPM (pH 5.5), drug conc. 0.5
[12] = E. coli in LPM (pH 5.5), drug conc. 1
[13] = E. coli in LPM (pH 5.5), drug conc. 2.5
[14] = E. coli in LPM (pH 5.5), drug conc. 5
[15] = E. coli in LPM (pH 5.5), drug conc. 10

## N#Cc1c(N2C[C@@H]3NCCO[C@H]3C2)c(F)cc2c(=O)c(C(=O)O)cn(C3CC3)c12 [Finafloxacin]
[1]; drug conc. 0.1
  log10(CFU/ml) after treatment, replicate 1: 8.820 log10(CFU/ml)
  log10(CFU/ml) after treatment, replicate 2: 9.041 log10(CFU/ml)
  log10(CFU/ml) after treatment, replicate 3: 8.982 log10(CFU/ml)
  average Δlog10(CFU/ml) (killing): 0.149 log10(CFU/ml)
[1]; drug conc. 0.5
  log10(CFU/ml) after treatment, replicate 1: 8.857 log10(CFU/ml)
  log10(CFU/ml) after treatment, replicate 2: 9.176 log10(CFU/ml)
  log10(CFU/ml) after treatment, replicate 3: 9.090 log10(CFU/ml)
  average Δlog10(CFU/ml) (killing): 0.056 log10(CFU/ml)
[1]; drug conc. 2.5
  log10(CFU/ml) after treatment, replicate 1: 8.820 log10(CFU/ml)
  log10(CFU/ml) after treatment, replicate 2: 8.954 log10(CFU/ml)
  log10(CFU/ml) after treatment, replicate 3: 8.820 log10(CFU/ml)
  average Δlog10(CFU/ml) (killing): 0.233 log10(CFU/ml)
[1]; drug conc. 10
  log10(CFU/ml) after treatment, replicate 1: 8.633 log10(CFU/ml)
  log10(CFU/ml) after treatment, replicate 2: 8.996 log10(CFU/ml)
  log10(CFU/ml) after treatment, replicate 3: 8.623 log10(CFU/ml)
  average Δlog10(CFU/ml) (killing): 0.346 log10(CFU/ml)
[2]; S. aureus, regrowth delay of non-growing bacteria, 1:4 CA-MHB pH 7.4, 24 h treatment, OD600 8 h after dilution, read-out: EC50
  EC50: 4660 nM
non-growing UPEC CFT073; 20 µM, preliminary experiments
  bactericidal effect against stationary-phase UPEC cultures: bactericidal effects
non-growing UPEC CFT073; [4]
  log10(CFU/ml) after treatment, replicate 1: 9.322 log10(CFU/ml)
  log10(CFU/ml) after treatment, replicate 2: 8.602 log10(CFU/ml)
  log10(CFU/ml) after treatment, replicate 3: 8.301 log10(CFU/ml)
non-growing UPEC CFT073; E. coli in 1:4 CA-MHB (pH 7.4), drug conc. 0.25, vs 8.977 before treatment
  average Δlog10(CFU/ml) (killing): 0.236 log10(CFU/ml)
non-growing UPEC CFT073; [5]
  log10(CFU/ml) after treatment, replicate 1: 9.255 log10(CFU/ml)
  log10(CFU/ml) after treatment, replicate 2: 8.903 log10(CFU/ml)
  log10(CFU/ml) after treatment, replicate 3: 8.845 log10(CFU/ml)
non-growing UPEC CFT073; E. coli in 1:4 CA-MHB (pH 7.4), drug conc. 0.5, vs 8.977 before treatment
  average Δlog10(CFU/ml) (killing): -0.024 log10(CFU/ml)
non-growing UPEC CFT073; [6]
  log10(CFU/ml) after treatment, replicate 1: 9.322 log10(CFU/ml)
  log10(CFU/ml) after treatment, replicate 2: 8.845 log10(CFU/ml)
  log10(CFU/ml) after treatment, replicate 3: 8.699 log10(CFU/ml)
non-growing UPEC CFT073; E. coli in 1:4 CA-MHB (pH 7.4), drug conc. 1, vs 8.977 before treatment
  average Δlog10(CFU/ml) (killing): 0.022 log10(CFU/ml)
non-growing UPEC CFT073; [7]
  log10(CFU/ml) after treatment, replicate 1: 9.176 log10(CFU/ml)
  log10(CFU/ml) after treatment, replicate 2: 9.041 log10(CFU/ml)
  log10(CFU/ml) after treatment, replicate 3: 8.230 log10(CFU/ml)
non-growing UPEC CFT073; E. coli in 1:4 CA-MHB (pH 7.4), drug conc. 2.5, vs 8.977 before treatment
  average Δlog10(CFU/ml) (killing): 0.161 log10(CFU/ml)
non-growing UPEC CFT073; [8]
  log10(CFU/ml) after treatment, replicate 1: 8.362 log10(CFU/ml)
  log10(CFU/ml) after treatment, replicate 2: 8.230 log10(CFU/ml)
  log10(CFU/ml) after treatment, replicate 3: 8.000 log10(CFU/ml)
non-growing UPEC CFT073; E. coli in 1:4 CA-MHB (pH 7.4), drug conc. 5, vs 8.977 before treatment
  average Δlog10(CFU/ml) (killing): 0.780 log10(CFU/ml)
non-growing UPEC CFT073; [9]
  log10(CFU/ml) after treatment, replicate 1: 7.491 log10(CFU/ml)
  log10(CFU/ml) after treatment, replicate 2: 7.954 log10(CFU/ml)
  log10(CFU/ml) after treatment, replicate 3: 8.079 log10(CFU/ml)
non-growing UPEC CFT073; E. coli in 1:4 CA-MHB (pH 7.4), drug conc. 10, vs 8.977 before treatment
  average Δlog10(CFU/ml) (killing): 1.136 log10(CFU/ml)
non-growing UPEC CFT073; [10]
  log10(CFU/ml) after treatment, replicate 1: 7.114 log10(CFU/ml)
  log10(CFU/ml) after treatment, replicate 2: 6.230 log10(CFU/ml)
  log10(CFU/ml) after treatment, replicate 3: 8.000 log10(CFU/ml)
non-growing UPEC CFT073; E. coli in LPM (pH 5.5), drug conc. 0.25, vs 7.350 before treatment
  average Δlog10(CFU/ml) (killing): 0.236 log10(CFU/ml)
non-growing UPEC CFT073; [11]
  log10(CFU/ml) after treatment, replicate 1: 7.114 log10(CFU/ml)
  log10(CFU/ml) after treatment, replicate 2: 6.447 log10(CFU/ml)
  log10(CFU/ml) after treatment, replicate 3: 7.699 log10(CFU/ml)
non-growing UPEC CFT073; E. coli in LPM (pH 5.5), drug conc. 0.5, vs 7.350 before treatment
  average Δlog10(CFU/ml) (killing): 0.264 log10(CFU/ml)
non-growing UPEC CFT073; [12]
  log10(CFU/ml) after treatment, replicate 1: 6.845 log10(CFU/ml)
  log10(CFU/ml) after treatment, replicate 2: 6.342 log10(CFU/ml)
  log10(CFU/ml) after treatment, replicate 3: 7.204 log10(CFU/ml)
non-growing UPEC CFT073; E. coli in LPM (pH 5.5), drug conc. 1, vs 7.350 before treatment
  average Δlog10(CFU/ml) (killing): 0.553 log10(CFU/ml)
non-growing UPEC CFT073; [13]
  log10(CFU/ml) after treatment, replicate 1: 6.301 log10(CFU/ml)
  log10(CFU/ml) after treatment, replicate 2: 6.699 log10(CFU/ml)
  log10(CFU/ml) after treatment, replicate 3: 6.580 log10(CFU/ml)
non-growing UPEC CFT073; E. coli in LPM (pH 5.5), drug conc. 2.5, vs 7.350 before treatment
  average Δlog10(CFU/ml) (killing): 0.824 log10(CFU/ml)
non-growing UPEC CFT073; [14]
  log10(CFU/ml) after treatment, replicate 1: 6.000 log10(CFU/ml)
  log10(CFU/ml) after treatment, replicate 2: 6.301 log10(CFU/ml)
  log10(CFU/ml) after treatment, replicate 3: 5.903 log10(CFU/ml)
non-growing UPEC CFT073; E. coli in LPM (pH 5.5), drug conc. 5, vs 7.350 before treatment
  average Δlog10(CFU/ml) (killing): 1.282 log10(CFU/ml)
non-growing UPEC CFT073; [15]
  log10(CFU/ml) after treatment, replicate 1: 6.146 log10(CFU/ml)
  log10(CFU/ml) after treatment, replicate 2: 6.114 log10(CFU/ml)
  log10(CFU/ml) after treatment, replicate 3: 5.544 log10(CFU/ml)
non-growing UPEC CFT073; E. coli in LPM (pH 5.5), drug conc. 10, vs 7.350 before treatment
  average Δlog10(CFU/ml) (killing): 1.416 log10(CFU/ml)

## NC1CCN(c2c(F)cc3c(=O)c(C(=O)O)cn(C4CC4)c3c2Cl)C1 (stereo not shown) [Clinafloxacin]
[1]; drug conc 0.1
  average Δlog10(CFU/ml) (killing): 0.189 log10(CFU/ml)
[1]; drug conc 0.5
  average Δlog10(CFU/ml) (killing): 0.859 log10(CFU/ml)
[1]; drug conc 2.5
  average Δlog10(CFU/ml) (killing): 1.351 log10(CFU/ml)
[1]; drug conc 10
  average Δlog10(CFU/ml) (killing): 1.499 log10(CFU/ml)
[2]; S. aureus, drug conc 0.1
  OD600 at 6h or 8h after dilution into drug-free medium (regrowth): 0.489
[2]; S. aureus, drug conc 0.5
  OD600 at 6h or 8h after dilution into drug-free medium (regrowth): 0.280
[2]; S. aureus, drug conc 2.5
  OD600 at 6h or 8h after dilution into drug-free medium (regrowth): 0.154
[2]; S. aureus, drug conc 10
  OD600 at 6h or 8h after dilution into drug-free medium (regrowth): 0.126
[2]; Staphylococcus aureus, DSM2569, S. aureus, regrowth delay of non-growing bacteria, 1:4 CA-MHB pH 7.4, 24 h treatment, OD600 8 h after dilution, read-out: EC50
  EC50: 205 nM
[3]; at 0.5 µM, 24 h treatment
  reduction of bacterial counts, stationary phase P. aeruginosa: more than four
[3]; at 2.5 µM, 1:4 CA-MHB pH 7.4, 24 h treatment
  reduction of bacterial counts, non-growing P. aeruginosa: more than four

## CO[C@@]12[C@H](COC(N)=O)C3=C(C(=O)C(C)=C(N)C3=O)N1C[C@@H]1N[C@@H]12 [Mitomycin C]
[1]; at 10 µM, 24 h treatment
  reduction of non-growing S. aureus: below the limit of detection
[2]; S. aureus, drug concentration 0.1
  Regrowth, OD600 at 6h or 8h after dilution into drug-free medium (average): 0.433
[2]; S. aureus, drug concentration 0.5
  Regrowth, OD600 at 6h or 8h after dilution into drug-free medium (average): 0.163
[2]; S. aureus, drug concentration 2.5
  Regrowth, OD600 at 6h or 8h after dilution into drug-free medium (average): 0.087
[2]; S. aureus, drug concentration 10
  Regrowth, OD600 at 6h or 8h after dilution into drug-free medium (average): 0.106
[2]; Staphylococcus aureus, DSM2569, pH 7.4
  EC50: 129 nM
[3]; drug concentration 0.1
  killing, average Δlog10(CFU/ml): 1.020 log10(CFU/ml)
[3]; drug concentration 0.5
  killing, average Δlog10(CFU/ml): 2.346 log10(CFU/ml)
[3]; drug concentration 2.5
  killing, average Δlog10(CFU/ml): 4.887 log10(CFU/ml)
[3]; drug concentration 10
  killing, average Δlog10(CFU/ml): 4.887 log10(CFU/ml)
[3]; at 2.5 µM, 24 h treatment
  killing of non-growing P. aeruginosa: > 4 log10
